The source of these data is patent US20150202203A1, “Method of Treating Gastrointestinal Stromal Tumors” (Novartis AG, priority 2012, published 2015).

Test [1] relates to GIST430 cells. The following applies: Imatinib combined with Dovitinib, 72 hrs. As for the experimental part:
GIST-T1 was obtained from Kochi Medical School, Kochi, Japan.
GIST882 cells were cultured in RPMI-1640 (ATCC Catalog #30-2001) supplemented with 15% FBS and 1% L-glutamine, GIST48 cells in F10 (Gibco/Invitrogen Catalog #11550-043) supplemented with 15% FBS, 0.5% Mito+ (BD Bioscience Catalog #355006), 1% BPE (BD Bioscience/Fisher Catalog#354123) and 1% L-glutamine, GIST430 cells in IMEM (Gib-co/Invitrogen Catalog #12440-053) supplemented with 15% FBS and 1% L-glutamine, and GIST-T1 cells in DMEM (Gibco/Invitrogen Catalog #11965) supplemented with 10% FBS.
10,000 cells suspended in 80 μl media were seeded into each well of a 96-well cell-culture plate and grown for 24 hours prior to treatment. 10 μl of 60 μg/mL heparin (Sigma Catalog # H3149) was added to each well, and then 10 μl of 50 μg/mL FGF2 (R&D Catalog #233-FB/CF) or media was added to each well of the plates. 10 μl of each of the compound dilutions described above and 10 μl of media were added to wells to a […] such that all pair-wise combinations as well as the single agents were represented.

Test [2] deals with GIST-T1 cells. Briefly: CellTiter-Glo cell viability assay, GIST-T1. On the technique in general: In ATP-based viability assays light output follows the ATP content of the culture.
Text: (§1) GIST882 was established from an untreated human GIST with a homozygous missense mutation in KIT exon 13, encoding a K642E mutant KIT protein (Tuveson D A, Willis N A, et al. Oncogene 2001; 20: 5054-5058). […] GIST48 has a primary homozygous exon 11 missense mutation (V560D) and a secondary heterozygous exon 17 missense mutation (D820A). GIST430 has a primary heterozygous exon 11 in-frame deletion and a secondary heterozygous exon 13 missense mutation (V654A). […] It was established from a metastatic human GIST with a heterozygous deletion of 57 bases in exon 11 of KIT (Taguchi T, Sonobe H, Toyonaga S, et al. Lab Invest 2002; 82: 663-665).
(§2) 10,000 cells suspended in 80 μl media were seeded into each well of a 96-well cell-culture plate and grown for 24 hours prior to treatment. 10 μl of 60 μg/mL heparin (Sigma Catalog # H3149) was added to each well, and then 10 μl of 50 μg/mL FGF2 (R&D Catalog #233-FB/CF) or media was added to each well of the plates. 10 μl of each of the compound dilutions described above and 10 μl of media were added to wells to a final volume 120 μl such that all pair-wise combinations as well as the single agents were represented. Cells were incubated for 72 hrs at 37° C. in a 5% CO2 incubator following compound addition. Cell proliferation was measured using the CellTiter-Glo luminescent cell viability assay (Promega catalog # G755B) and Victor4 plate reader (Perkin Elmer).
The subject of test [3] is GIST882 cells.
Text: as §1, §2
Test [4] relates to GIST. The conditions noted are these: cited from earlier work.
Test [5] has as its system KIT. Briefly: KIT inhibition by Western blot in GIST cell lines. Format: cell-based, human. The conditions noted are these: GIST-T1, GIST882 and GIST48; compared with dovitinib. On the technique in general: A western blot detects proteins with antibodies after separation by electrophoresis.
Experimental: Protein lysates were prepared from cell monalayers using RIPA buffer (Cell Signaling Technology Catalog #9806) according to the procedure described by the manufacturer. Antibod-ies to detect phospho-KIT (Catalog #3073S), total KIT (Catalog #3308), phospho-AKT S473 (Catalog #4058), total AKT (Catalog #9272), phospho-ERK (Catalog #9101), total ERK (Catalog #9107) and phospho-FRS2 (Catalog #3864) were purchased from Cell Signaling Technology. Antibody to GAPDH (Catalog # MAB374) was purchased from Millipore and anti-FRS2(H-91) (Catalog #sc-8318) from Santa Cruz. Bound antibody was detected using the LI-COR Odyssey Infrared Imaging System.
Where [6] appears, read: Imatinib combined with Dovitinib, 72 hrs.
Setting [7] is: absence of added FGF2, single agent.
Setting [8] is: presence of added FGF2, single agent.

Entries after “also recorded” stand apart in the source; their conditions may differ. Like-named read-outs stand apart in the source and are kept apart here.

`CN1CCN(c2ccc3nc(-c4c(N)c5c(F)cccc5[nH]c4=O)[nH]c3c2)CC1` [Dovitinib, 4-amino-5-fluoro-3-[6-(4-methylpiperazin-1-yl)-1H-benzimidazol-2-yl]quinolin-2(1H)-one]: the “Combination Index for 70% inhibition of GIST cell proliferation” value in test [1] is given as 0.624; in test [2] (setting [6]), 0.835; in test [3] (setting [6]) it was 0.965. Besides, the “Synergy Score for inhibition of GIST cell proliferation” value in test [1] is given as 0.635; in test [2] (setting [6]), 0.422; in test [3] (setting [6]), 0.321. The growth inhibition entry is reported as “effective” in test [2] (setting [7]); “restores maximum growth inhibition; also recorded: maximum inhibition was restored to levels comparable to the absence of FGF2” in test [2] (setting [8]); “same level of maximum inhibition in the presence or absence of added FGF2” in test [2] (presence of added FGF2, single agent, listed as Dovtinib); “effective” in test [3] (setting [7]); “restores maximum growth inhibition; also recorded: maximum inhibition was restored to levels comparable to the absence of FGF2” in test [3] (setting [8]).
With `Cc1ccc(NC(=O)c2ccc(CN3CCN(C)CC3)cc2)cc1Nc1nccc(-c2cccnc2)n1` [Imatinib, 4-(4-methylpiperazin-1-ylmethyl)-N-[4-methyl-3-(4-(pyridin-3-yl)pyrimidin-2-ylamino)phenyl]-benzamide], the “progression-free survival (PFS)” value in test [4] (800 mg/day compared to 400 mg/day, advanced GIST harboring KIT exon 9 mutations) is “significantly improves”. Also, the “RFS and overall survival” value in test [4] (adjuvant 400 mg once daily, 36 months vs 12 months (SSGXVIII/AIO)) is recorded as “superior to 12 months”. In addition, in test [4] (adjuvant 400 mg/day for 12 months vs placebo, after complete resection (ACOSOGZ9001)), the “recurrence-free survival (RFS)” value is reported as “significantly prolonged RFS”. For the same compound, in test [5], the “KIT inhibition (Western blot)” value was “more potent KIT inhibitor than dovitinib”. Moreover, the growth inhibition result is reported as “efficacious” in test [2] (setting [7]), “less sensitive” in test [2] (setting [8]), “efficacious” in test [3] (setting [7]) and “less sensitive” in test [3] (setting [8]).
`Cc1cn(-c2cc(NC(=O)c3ccc(C)c(Nc4nccc(-c5cccnc5)n4)c3)cc(C(F)(F)F)c2)cn1` [Nilotinib, 4-methyl-3-[[4-(3-pyridinyl)-2-pyrimidinyl]amino]-N-[5-(4-methyl-1H-imidazol-1-yl)-3-(trifluoromethyl)phenyl]benzamide]: the growth inhibition result in test [2] (setting [7]) is “inhibits growth of GIST-T1 cells”; in test [2] (absence of added FGF2, single agent, listed as nilotinib), “sensitive to KIT inhibition”; in test [2] (setting [8]), “less sensitive; also recorded: significantly decreased”; in test [3] (setting [7]), “sensitive to KIT inhibition”; in test [3] (setting [8]), “less sensitive”. Further, the “GI50 shift in the presence of added FGF2” value in test [2] (with vs without added FGF2) and in test [3] (with vs without added FGF2) was “greater than 10 fold” in each case.
